Experimental data from US12172993B2 (priority 2018, dated 2024).
Converted amounts (≈) assume the structure as drawn. Where two headings read alike, the source gives them in different places.

Columns and labels:
[1] = humans; prescribing information; cited from earlier work
[2] = target: T1, RET (Homo sapiens (Human), UniProt P07949)
[3] = in vivo; settings: male, CD1, mouse
[4] = in vitro; settings: dog, MDCK
[5] = system: MDR1; experiment: in vitro; settings: dog, MDCK-MDR1
[6] = target: hERG potassium channel (Homo sapiens (Human), UniProt Q12809); settings: 3 uM; from NDA 21-986 review; cited from earlier work
[7] = target: PDGFR-beta (Homo sapiens (Human), UniProt P09619); experiment: biochemical; settings: read-out: Residual activity (%) at 1 μM
[8] = target: BMPR1A (Homo sapiens (Human), UniProt P36894); experiment: biochemical; settings: read-out: Residual activity (%) at 1 μM
[9] = target: T1, RET; experiment: biochemical; settings: read-out: Residual activity (%) at 1 μM, RET
[10] = target: MST4 (Homo sapiens (Human), UniProt Q9P289); experiment: biochemical; settings: read-out: Residual activity (%) at 1 μM
[11] = target: WEE1 (Homo sapiens (Human), UniProt P30291); experiment: biochemical; settings: read-out: Residual activity (%) at 1 μM
[12] = target: ABL1 wt (Homo sapiens (Human), UniProt P00519); assay type: biochemical
[13] = target: SRC (GST-HIS-tag) (Homo sapiens (Human), UniProt P12931); assay type: biochemical
[14] = target: SIK2 (Homo sapiens (Human), UniProt Q9H0K1); assay type: biochemical
[15] = target: SIK3 (Homo sapiens (Human), UniProt Q9Y2K2)
[16] = target: RAF1 (Homo sapiens (Human), UniProt P04049, Y340D/Y341D); assay type: biochemical; settings: read-out: Residual activity (%) at 1 μM
[17] = system: cell-panel representing haematological cancers; experiment: haematological cancer cell-panel growth inhibition (Oncolead); assay type: cell-based
[18] = system: PANC-1 cells; experiment: real-time live cell microscopy of TNF-induced cell death (YOYO-1); assay type: cell-based; settings: real-time live cell assay
[19] = human, microsomes
[20] = system: human plasma-proteins
[21] = system: murine plasma-proteins
[22] = system: immune cells present in the tumour microenvironment
[23] = system: MC38 cells
[24] = system: NFKB activity; settings: PANC-1 reporter cells; in words
[25] = system: HDAC4 phosphorylation
[26] = system: MC38 cells; experiment: cells; settings: Mus musculus, MC-38, 72 h, read-out: MC38 IC50 (nM at 100 ng/mL TNF)
[27] = maximal tolerable dose (MTD) study in female C57Bl/6 mice
[28] = physchem; assay type: physicochemical
[29] = twice daily treatment, intra-tumoural

T1 sequence (P07949 29-1114 limits assumed): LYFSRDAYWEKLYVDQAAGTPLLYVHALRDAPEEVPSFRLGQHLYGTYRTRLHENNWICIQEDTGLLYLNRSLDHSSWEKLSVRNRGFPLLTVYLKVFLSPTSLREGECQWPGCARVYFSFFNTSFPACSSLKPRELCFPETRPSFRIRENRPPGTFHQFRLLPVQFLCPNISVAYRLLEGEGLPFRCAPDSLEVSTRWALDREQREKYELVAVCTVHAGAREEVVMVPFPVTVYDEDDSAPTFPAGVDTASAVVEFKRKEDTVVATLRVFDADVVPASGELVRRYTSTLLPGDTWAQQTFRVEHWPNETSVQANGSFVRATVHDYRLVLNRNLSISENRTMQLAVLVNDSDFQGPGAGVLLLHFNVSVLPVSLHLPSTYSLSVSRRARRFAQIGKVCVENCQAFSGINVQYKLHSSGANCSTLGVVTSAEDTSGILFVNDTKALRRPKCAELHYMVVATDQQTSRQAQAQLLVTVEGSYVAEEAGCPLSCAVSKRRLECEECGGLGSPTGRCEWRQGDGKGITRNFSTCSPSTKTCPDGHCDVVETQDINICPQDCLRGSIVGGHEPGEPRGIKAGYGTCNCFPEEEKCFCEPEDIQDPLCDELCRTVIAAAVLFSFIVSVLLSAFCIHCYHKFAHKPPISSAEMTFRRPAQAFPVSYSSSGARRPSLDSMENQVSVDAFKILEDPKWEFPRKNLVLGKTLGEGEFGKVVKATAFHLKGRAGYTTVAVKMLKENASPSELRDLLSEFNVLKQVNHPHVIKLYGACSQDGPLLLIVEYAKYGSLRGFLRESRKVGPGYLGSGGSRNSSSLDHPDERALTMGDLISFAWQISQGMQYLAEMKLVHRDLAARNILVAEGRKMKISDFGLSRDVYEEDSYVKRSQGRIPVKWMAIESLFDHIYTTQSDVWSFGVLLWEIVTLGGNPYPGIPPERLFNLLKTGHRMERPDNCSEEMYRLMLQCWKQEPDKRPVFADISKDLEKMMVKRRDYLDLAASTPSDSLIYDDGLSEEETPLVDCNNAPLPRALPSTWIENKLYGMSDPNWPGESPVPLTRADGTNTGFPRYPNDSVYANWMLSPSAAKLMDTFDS
Sequence of PDGFR-beta (P09619 33-1106 limits assumed): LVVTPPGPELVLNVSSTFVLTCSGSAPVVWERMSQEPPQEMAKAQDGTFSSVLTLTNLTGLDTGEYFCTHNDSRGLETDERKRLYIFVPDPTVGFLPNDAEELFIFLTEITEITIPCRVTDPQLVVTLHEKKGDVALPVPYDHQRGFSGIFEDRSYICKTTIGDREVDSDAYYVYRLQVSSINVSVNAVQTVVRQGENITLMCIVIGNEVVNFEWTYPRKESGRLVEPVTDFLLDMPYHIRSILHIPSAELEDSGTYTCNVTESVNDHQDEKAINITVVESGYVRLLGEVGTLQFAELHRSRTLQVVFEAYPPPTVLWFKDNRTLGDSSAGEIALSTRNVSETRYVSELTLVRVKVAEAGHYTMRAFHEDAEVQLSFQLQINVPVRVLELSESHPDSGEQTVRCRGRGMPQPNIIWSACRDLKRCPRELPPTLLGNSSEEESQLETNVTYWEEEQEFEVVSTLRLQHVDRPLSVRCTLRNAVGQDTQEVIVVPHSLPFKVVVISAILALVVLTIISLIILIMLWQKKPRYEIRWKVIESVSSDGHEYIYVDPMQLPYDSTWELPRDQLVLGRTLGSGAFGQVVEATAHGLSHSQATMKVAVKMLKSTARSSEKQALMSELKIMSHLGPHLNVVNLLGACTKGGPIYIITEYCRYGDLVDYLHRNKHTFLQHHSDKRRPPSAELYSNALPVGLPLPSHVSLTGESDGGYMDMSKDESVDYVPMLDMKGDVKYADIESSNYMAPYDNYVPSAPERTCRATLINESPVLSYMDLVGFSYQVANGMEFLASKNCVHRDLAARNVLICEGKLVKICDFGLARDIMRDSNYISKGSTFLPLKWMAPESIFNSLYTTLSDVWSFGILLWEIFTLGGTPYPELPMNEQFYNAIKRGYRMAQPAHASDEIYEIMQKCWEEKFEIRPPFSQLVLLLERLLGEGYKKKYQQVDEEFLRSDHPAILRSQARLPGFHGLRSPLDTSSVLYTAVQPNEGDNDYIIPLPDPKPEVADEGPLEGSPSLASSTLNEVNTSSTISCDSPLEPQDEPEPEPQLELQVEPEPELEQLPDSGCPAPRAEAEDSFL
Sequence of RAF1 (P04049 307-648 Y340D/Y341D limits assumed): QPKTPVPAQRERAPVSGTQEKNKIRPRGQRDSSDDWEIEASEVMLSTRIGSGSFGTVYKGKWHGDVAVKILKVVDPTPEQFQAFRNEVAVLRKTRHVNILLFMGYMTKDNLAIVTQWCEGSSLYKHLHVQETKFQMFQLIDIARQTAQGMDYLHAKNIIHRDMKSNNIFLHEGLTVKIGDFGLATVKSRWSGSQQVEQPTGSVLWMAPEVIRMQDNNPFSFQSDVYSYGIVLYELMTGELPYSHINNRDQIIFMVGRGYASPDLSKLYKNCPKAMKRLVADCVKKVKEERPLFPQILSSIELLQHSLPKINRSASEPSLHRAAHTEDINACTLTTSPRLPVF
Sequence of ABL1 wt (P00519 118-535 limits assumed): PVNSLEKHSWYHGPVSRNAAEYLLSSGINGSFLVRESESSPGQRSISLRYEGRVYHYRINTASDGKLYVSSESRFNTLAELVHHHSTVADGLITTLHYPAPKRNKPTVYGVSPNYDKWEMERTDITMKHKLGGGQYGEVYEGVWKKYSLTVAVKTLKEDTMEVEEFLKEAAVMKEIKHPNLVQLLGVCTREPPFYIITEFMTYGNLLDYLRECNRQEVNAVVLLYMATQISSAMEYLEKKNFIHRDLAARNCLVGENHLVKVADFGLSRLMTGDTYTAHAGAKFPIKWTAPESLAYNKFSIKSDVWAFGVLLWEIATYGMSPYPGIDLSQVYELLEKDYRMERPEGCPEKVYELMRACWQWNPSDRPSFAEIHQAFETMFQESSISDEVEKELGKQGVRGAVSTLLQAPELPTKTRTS
Sequence of BMPR1A (P36894 24-532 limits assumed): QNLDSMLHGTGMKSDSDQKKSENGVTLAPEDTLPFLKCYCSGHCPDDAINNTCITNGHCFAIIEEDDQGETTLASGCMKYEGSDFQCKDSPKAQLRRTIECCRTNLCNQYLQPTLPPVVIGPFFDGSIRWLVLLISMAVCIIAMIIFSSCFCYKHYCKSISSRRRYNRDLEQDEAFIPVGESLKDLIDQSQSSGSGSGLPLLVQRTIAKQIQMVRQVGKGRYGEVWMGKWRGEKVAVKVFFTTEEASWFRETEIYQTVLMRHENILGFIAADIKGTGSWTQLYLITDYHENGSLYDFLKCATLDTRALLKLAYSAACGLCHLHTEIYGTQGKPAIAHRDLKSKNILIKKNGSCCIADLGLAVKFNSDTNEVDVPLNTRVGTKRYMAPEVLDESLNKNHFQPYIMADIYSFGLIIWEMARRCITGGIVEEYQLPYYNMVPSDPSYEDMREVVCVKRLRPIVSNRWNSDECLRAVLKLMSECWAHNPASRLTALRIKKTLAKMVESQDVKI

In the case of `Cc1cn(-c2cc(NC(=O)c3ccc(C)c(Nc4nccc(-c5cccnc5)n4)c3)cc(C(F)(F)F)c2)cn1` [nilotinib], the “terminal / elimination half-life” value [1] is listed as “approximately 17 hours”.

For `Cc1nc(Nc2ncc(C(=O)Nc3c(C)cccc3Cl)s2)cc(N2CCN(CCO)CC2)n1` [Compound A8, N-(2-chloro-6-methylphenyl)-2-((6-(4-(2-hydroxyethyl)piperazin-1-yl)-2-methylpyrimidin-4-yl)amino)thiazole-5-carboxamide, reference compound], the “Residual activity (%) at 1 μM” value [2] was 39%, the Cmax ([3]; plasma, iv, 1 mg/kg) was 1280 nM and the MRT inf ([3]; plasma, iv, 1 mg/kg) was 96 min. It also gave an MRT last ([3]; plasma, iv, 1 mg/kg) of 78 min, a Tmax ([3]; plasma, iv, 1 mg/kg) of 4.8 min and a Vd ([3]; plasma, iv, 1 mg/kg) of 3.1 L/kg. The clearance ([3]; plasma, iv, 1 mg/kg) was 32 mL/min/kg, the Cmax ([3]; plasma, po, 30 mg/kg) was 1130 nM and the Tmax ([3]; plasma, po, 30 mg/kg) was 120 min. The bioavailability ([3]; plasma, po, 30 mg/kg) was 21%, the Papp [4] was 49 ×10⁻⁶ cm/s and the Papp [5] was 105 ×10⁻⁶ cm/s. The “inhibition of hERG currents” value [6] was “about 6%”, the remaining activity at 1 µM [7] was 2% and the remaining activity at 1 µM [8] was 42%. For the same compound, the remaining activity at 1 µM [9] was < 40%, the remaining activity at 1 µM [10] was 79% and the remaining activity at 1 µM [11] was 61%.

In the case of `Cc1nc(Nc2ncc(C(=O)Nc3c(Cl)ccnc3C)s2)cc(N2CCN(C)CC2)n1` [Compound C10], the IC50 [12] is reported as 4.3 nM, the IC50 [13] is reported as < 1.5 nM and the IC50 [14] is reported as 138 nM. The IC50 [15] was 493 nM.

In the case of `Cc1nc(Nc2ncc(C(=O)Nc3c(C)csc3Cl)s2)cc(N2CCN(CCO)CC2)n1` [Compound C7, N-(2-chloro-4-methylthiophen-3-yl)-2-((6-(4-(2-hydroxyethyl)piperazin-1-yl)-2-methylpyrimidin-4-yl)amino)thiazole-5-carboxamide], the remaining activity at 1 µM [16] is reported as 4 to 5%, the GI50 activity ([17]; on about 5 cell lines of the panel) is reported as “sub-nanomolar” and the GI50 ([17]; read-out: GI50 activity) is reported as < 10 nM. The “sensitisation to the effect of rHuTNF” value [18] was “sensitise PANC-1 cells to the effect of rHuTNF”, the “% Remaining at 40 min (%)” value [19] was 1% and the “Percentage unbound (%)” value ([20]; human plasma-protein binding) was <1%. For the same compound, the “Percentage unbound (%)” value ([21]; murine plasma protein binding) was 5%, the “immunosuppressive M2 macrophages (CD206+MHC-II+)” value ([22]; mouse, in vivo) was “significantly reduced” and the “activation of cytotoxic T lymphocytes, CD25+CD69+” value [22, 29] was “increased activation”. For the same compound, the “activation of cytotoxic T lymphocytes, granzyme B expression” value [22, 29] was “increased activation”, the “sensitisation to the cytotoxic effect of TNF” value [23] was “sensitised to the cytotoxic effect of TNF” and the “TNF-induced activity of NFkB” value [24] was “inhibit TNF-induced activity of NFkB in a dose-dependent manner”. For the same compound, the “phosphorylation of HDAC4” value [25] was “inhibit the phosphorylation of HDAC4”, the IC50 [26] was < 100 nM and the MRT inf ([3]; in vivo, iv, 1 mg/kg) was 60 min. For the same compound, the MRT last ([3]; in vivo, iv, 1 mg/kg) was 42 min, the signs of intolerance ([27]; 33 and 100 mg/kg QD or BID, 7 consecutive days) was “did not show any signs of intolerance” and the body weight ([27]; all dosing groups vs non-treated control animals) was “minor reduction in body weight”. For the same compound, the tolerable dose ([27]; gavage, female C57BL/6 animals, seven days) was “up to 100 mg/kg BID”.

`Cc1nc(Nc2ncc(C(=O)Nc3c(Cl)ccnc3C)s2)cc(N2CCN(CCO)CC2)n1` [Compound B3, N-(4-chloro-2-methylpyridin-3-yl)-2-((6-(4-(2-hydroxyethyl)piperazin-1-yl)-2-methylpyrimidin-4-yl)amino)thiazole-5-carboxamide] gave a solubility kinetic [28] of 82 µM (≈ 40.1 µg/mL), a solubility kinetic ([28]; kinetic from dmso stock) of 82 µM (≈ 40.1 µg/mL) and an Intrinsic clearance (L/min/mg) [19] of 24 µL/min/mg. For the same compound, the “half-life” value [19] was 58 min, the “% Remaining at 40 min (%)” value [19] was 60% and the “Percentage unbound (%)” value [20] was 7%. The “Percentage unbound (%)” value [21] was 11%, the AUC(0-inf) ([3]; plasma, iv, 1 mg/kg) was 0.45 µM·h and the AUC(0-t) ([3]; plasma, iv, 1 mg/kg) was 0.437 µM·h. It also gave a Cmax ([3]; plasma, iv, 1 mg/kg) of 1230 nM, an MRT inf ([3]; plasma, iv, 1 mg/kg) of 17.4 min and an MRT last ([3]; plasma, iv, 1 mg/kg) of 15 min. It also gave a Tmax ([3]; plasma, iv, 1 mg/kg) of 4.98 min, a Vd ([3]; plasma, iv, 1 mg/kg) of 1.31 L/kg and a clearance ([3]; plasma, iv, 1 mg/kg) of 75 mL/min/kg. For the same compound, the AUC(0-inf) ([3]; plasma, po, 30 mg/kg) was 0.687 µM·h, the AUC(0-t) ([3]; plasma, po, 30 mg/kg) was 0.589 µM·h and the Cmax ([3]; plasma, po, 30 mg/kg) was 202 nM. The Tmax ([3]; plasma, po, 30 mg/kg) was 30 min, the bioavailability ([3]; plasma, po, 30 mg/kg) was 4% and the Papp [4] was 20 ×10⁻⁶ cm/s. For the same compound, the Papp [5] was 20 ×10⁻⁶ cm/s.
